Consider one compound from ChEMBL document CHEMBL5584231, “Rational design of a new short anticancer peptide with good potential for cancer treatment” (Eur J Med Chem, 2024).

Calls of active or inactive are those of the source. No cut-off for these calls is given here.

For one data set, the system named is HeLa. The data set is described as follows: Cytotoxicity against human HeLa cells assessed as inhibition of cell growth incubated for 1 hr by MTT assay. Format: functional, cell-based.
Another data set has as its system MCF7. In words: Cytotoxicity against human MCF7 cells assessed as inhibition of cell growth incubated for 1 hr by MTT assay. It counts as functional, cell-based. Particulars: MCF7, 1 h. (Tetrazolium dyes change colour on reduction, which living cells bring about.)
A further data set deals with A549. The data set is described as follows: Cytotoxicity against human A549 cells assessed as inhibition of cell growth incubated for 1 hr by MTT assay. It counts as functional, cell-based. Particulars: A549, 1 h.
A short description of data set [1]: Cytotoxicity against HK-2 cells assessed as inhibition of cell growth incubated for 1 hr by MTT assay. The settings on record: human. It counts as toxicity, cell-based.
A short description of data set [2]: Therapeutic index, ratio of HC10 for mouse RBC to IC50 for cytotoxicity against human HeLa cells. Format: toxicity, cell-based. The settings on record: mouse RBC and HeLa cells, read-out: TI.
Data set [3] can be described thus: Therapeutic index, ratio of HC10 for mouse RBC to IC50 for cytotoxicity against human MCF7 cells. Format: toxicity, cell-based. Particulars: mouse RBC and MCF7 cells, read-out: TI.
A short description of data set [4]: Therapeutic index, ratio of HC10 for mouse RBC to IC50 for cytotoxicity against RG cells (unknown origin). Format: toxicity, cell-based. The settings on record: mouse RBC and RG cells, read-out: TI.
Data set [5] in a line: Therapeutic index, ratio of HC10 for mouse RBC to IC50 for cytotoxicity against human A549 cells. It counts as toxicity, cell-based. Particulars: mouse RBC and A549 cells, read-out: TI.
Data set [6] in a line: Hemolytic activity in mouse RBC at 12.5 uM incubated for 1 hr by absorbance based assay relative to control. It counts as toxicity, cell-based, Erythrocyte. Particulars: red blood cells (erythrocytes), read-out: Activity.
For data set [7], the system named is Cell membrane. In words: Disruption of cell membrane in human MCF7 cells assessed as LDH release at 40 uM incubated for 1 hr by fluorescence based microplate reader analysis relative to control. It counts as cell membranes. For orientation: LDH leaks from cells whose membrane has failed.
For data set [8], the system named is Cell membrane. In words: Induction of morphological changes in cell membrane of human MCF7 cells assessed as membrane damage at 1 times IC50 incubated for 1 hr by SEM analysis. Format: cell membranes.
Data set [9] deals with Cell membrane. The data set is described as follows: Induction of morphological changes in cell membrane of human MCF7 cells assessed as cell depression at 1 times IC50 incubated for 1 hr by SEM analysis. It counts as cell membranes.
Data set [10] concerns Cell membrane. The data set is described as follows: Disruption of cell membrane integrity in human MCF7 cells assessed as increase in PI fluorescence at 1 times IC50 by laser confocal scanning microscopic analysis. Particulars: time 0-120 min, TDE = time-dependent effect.
The subject of data set [11] is Cell membrane. The data set is described as follows: Disruption of cell membrane integrity in human MCF7 cells assessed as increase in PI fluorescence measured after 1 hr by laser confocal scanning microscopic analysis. Format: cell membranes.
The subject of data set [12] is Cell membrane. In words: Induction of cell membrane damage in human MCF7 cells assessed as protein leakage at 1 to 2 times IC50 measured after 0.5 to 6 hrs by UV based analysis. Format: cell membranes. The settings on record: time 0.5-6 hrs.
The test system of data set [13] is Cell membrane. The data set is described as follows: Induction of cell membrane damage in human MCF7 cells assessed as nucleic acid leakage at 1 to 2 times IC50 measured after 0.5 to 6 hrs by UV based analysis. The settings on record: time 0.5-6 hrs. Format: cell membranes.

A word on the IC50: it is the midpoint of a concentration-inhibition curve. In the case of `CC[C@H](C)[C@H](NC(=O)CN)C(=O)NCC(=O)N[C@@H](C)C(=O)N[C@H](C(=O)N[C@@H](CC(C)C)C(=O)N[C@@H](CCCCN)C(=O)N[C@H](C(=O)N[C@@H](CC(C)C)C(=O)N[C@H](C(=O)N[C@H](C(=O)NCC(=O)N[C@@H](CC(C)C)C(=O)N1CCC[C@H]1C(=O)N[C@@H](C)C(=O)N[C@@H](CC(C)C)C(=O)N[C@H](C(=O)N[C@@H](CO)C(=O)N[C@@H](Cc1c[nH]c2ccccc12)C(=O)N[C@H](C(=O)N[C@@H](CCCCN)C(=O)N[C@@H](CCCNC(=N)N)C(=O)N[C@@H](CCCCN)C(=O)N[C@@H](CCCNC(=N)N)C(=O)N[C@@H](CCC(N)=O)C(=O)N[C@@H](CCC(N)=O)C(N)=O)[C@@H](C)CC)[C@@H](C)CC)[C@@H](C)O)[C@@H](C)O)C(C)C)C(C)C` [MELITTIN], the IC50 in the data set on HeLa was determined as 934 nM; in the data set on MCF7, 1790 nM; with A549, 1830 nM. In addition, in [1], the IC50 at 1 h is 802 nM. The selectivity ratio amounted to 1.44 in [2], 0.747 in data set [3], 0.859 in [4] and 0.733 in [5]. Also, in [6], the hemolysis at 1 h, 12.5 µM is > 85%. Also, the Activity is 86.8% in the data set with Cell membrane [7], “Tde” in the data set with Cell membrane [10] and “Dose-Dependent Effect” with Cell membrane [11]. The result in the data set with Cell membrane [8], in the data set on Cell membrane [9], with Cell membrane [12] and in the data set with Cell membrane [13] was Active.
